Source: article PMC10013843 (Molecular psychiatry, 2022)

Key:
HCN1 channel [1] = target: T1, HCN1 channel (Homo sapiens, UniProt O60741); settings: cited from earlier work
T1 sequence (O60741 1-890): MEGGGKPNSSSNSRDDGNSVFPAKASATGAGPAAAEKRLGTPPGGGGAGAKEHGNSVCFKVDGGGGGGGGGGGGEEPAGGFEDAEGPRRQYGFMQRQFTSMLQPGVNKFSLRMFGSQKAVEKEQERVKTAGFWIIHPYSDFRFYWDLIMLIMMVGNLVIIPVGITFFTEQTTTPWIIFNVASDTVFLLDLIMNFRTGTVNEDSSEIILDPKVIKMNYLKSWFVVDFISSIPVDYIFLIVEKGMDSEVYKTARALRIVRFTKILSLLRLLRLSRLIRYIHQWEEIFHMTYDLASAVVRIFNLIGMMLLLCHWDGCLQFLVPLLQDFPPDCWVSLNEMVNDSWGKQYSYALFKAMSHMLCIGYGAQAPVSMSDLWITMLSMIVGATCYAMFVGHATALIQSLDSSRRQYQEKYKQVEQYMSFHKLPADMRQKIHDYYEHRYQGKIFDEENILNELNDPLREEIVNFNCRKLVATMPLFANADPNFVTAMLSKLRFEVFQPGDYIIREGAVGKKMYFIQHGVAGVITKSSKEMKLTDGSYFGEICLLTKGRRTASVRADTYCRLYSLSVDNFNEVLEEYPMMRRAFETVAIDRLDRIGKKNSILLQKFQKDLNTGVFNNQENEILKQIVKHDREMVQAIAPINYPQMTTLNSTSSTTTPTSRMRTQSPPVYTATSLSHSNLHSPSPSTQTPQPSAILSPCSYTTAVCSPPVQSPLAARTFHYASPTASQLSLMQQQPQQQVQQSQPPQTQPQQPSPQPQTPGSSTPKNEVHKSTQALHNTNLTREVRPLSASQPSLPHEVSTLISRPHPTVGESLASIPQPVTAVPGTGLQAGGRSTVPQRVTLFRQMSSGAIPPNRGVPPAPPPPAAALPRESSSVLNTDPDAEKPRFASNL

HCN1 channel [2] = target: T1, HCN1 channel; assay: HCN1 channel functional interaction; format: biochemical
sigma-1 receptors = sigma-1 receptors (Rattus norvegicus, UniProt Q9R0C9); settings: cited from earlier work
Chain of sigma-1 receptors (Q9R0C9 whole entry): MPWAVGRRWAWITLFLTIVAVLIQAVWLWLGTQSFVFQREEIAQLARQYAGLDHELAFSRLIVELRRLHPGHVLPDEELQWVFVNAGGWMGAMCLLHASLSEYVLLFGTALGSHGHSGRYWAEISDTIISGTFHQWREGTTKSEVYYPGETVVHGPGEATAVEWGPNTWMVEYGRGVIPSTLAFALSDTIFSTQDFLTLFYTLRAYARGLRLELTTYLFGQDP

rats [3] = settings: cited from earlier work
MOR and KOR = settings: cited from earlier work
mu-opioid receptors, MOR = mu-opioid receptors, MOR (Rattus norvegicus, UniProt P33535); settings: cited from earlier work
Chain of mu-opioid receptors, MOR (P33535 whole entry): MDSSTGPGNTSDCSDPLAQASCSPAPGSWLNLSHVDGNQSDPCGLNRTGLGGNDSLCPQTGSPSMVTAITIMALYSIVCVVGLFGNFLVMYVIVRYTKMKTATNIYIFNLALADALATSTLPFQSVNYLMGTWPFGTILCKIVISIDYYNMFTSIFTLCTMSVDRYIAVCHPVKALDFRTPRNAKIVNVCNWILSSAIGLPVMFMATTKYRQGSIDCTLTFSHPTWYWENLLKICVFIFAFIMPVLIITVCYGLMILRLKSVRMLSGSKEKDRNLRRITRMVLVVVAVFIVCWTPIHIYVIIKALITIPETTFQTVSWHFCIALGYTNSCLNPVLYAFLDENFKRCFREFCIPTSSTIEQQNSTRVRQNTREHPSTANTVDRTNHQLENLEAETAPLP

MOR (OPRM1) = MOR (OPRM1) (Homo sapiens, UniProt P35372); settings: cited from earlier work
Chain of MOR (OPRM1) (P35372 whole entry): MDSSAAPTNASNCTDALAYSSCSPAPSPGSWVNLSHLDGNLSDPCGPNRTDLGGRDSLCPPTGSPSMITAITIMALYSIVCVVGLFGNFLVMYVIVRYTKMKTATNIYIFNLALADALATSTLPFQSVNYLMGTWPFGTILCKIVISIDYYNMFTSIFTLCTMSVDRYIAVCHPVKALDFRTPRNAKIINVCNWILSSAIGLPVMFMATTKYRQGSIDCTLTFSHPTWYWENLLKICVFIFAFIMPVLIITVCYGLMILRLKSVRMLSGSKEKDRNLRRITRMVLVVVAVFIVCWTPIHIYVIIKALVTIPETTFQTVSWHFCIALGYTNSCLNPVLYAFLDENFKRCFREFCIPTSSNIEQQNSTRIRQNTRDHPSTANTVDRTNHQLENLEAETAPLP

KOR (OPRK1) = KOR (OPRK1) (Homo sapiens, UniProt P41145); settings: cited from earlier work
Chain of KOR (OPRK1) (P41145 whole entry): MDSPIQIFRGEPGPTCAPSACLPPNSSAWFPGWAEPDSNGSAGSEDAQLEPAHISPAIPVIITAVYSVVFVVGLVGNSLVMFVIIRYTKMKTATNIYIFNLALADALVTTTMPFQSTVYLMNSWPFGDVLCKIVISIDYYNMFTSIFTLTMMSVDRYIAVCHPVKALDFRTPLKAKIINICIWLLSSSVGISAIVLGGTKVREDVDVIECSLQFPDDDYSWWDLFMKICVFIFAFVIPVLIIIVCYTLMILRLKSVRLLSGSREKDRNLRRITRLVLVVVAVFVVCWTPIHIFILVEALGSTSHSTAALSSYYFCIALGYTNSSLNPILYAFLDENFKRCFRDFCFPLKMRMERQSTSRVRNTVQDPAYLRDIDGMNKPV

[4] = target: kappa-opioid receptors, KOR (Rattus norvegicus, UniProt P34975); settings: cited from earlier work
Chain of kappa-opioid receptors, KOR (P34975 whole entry): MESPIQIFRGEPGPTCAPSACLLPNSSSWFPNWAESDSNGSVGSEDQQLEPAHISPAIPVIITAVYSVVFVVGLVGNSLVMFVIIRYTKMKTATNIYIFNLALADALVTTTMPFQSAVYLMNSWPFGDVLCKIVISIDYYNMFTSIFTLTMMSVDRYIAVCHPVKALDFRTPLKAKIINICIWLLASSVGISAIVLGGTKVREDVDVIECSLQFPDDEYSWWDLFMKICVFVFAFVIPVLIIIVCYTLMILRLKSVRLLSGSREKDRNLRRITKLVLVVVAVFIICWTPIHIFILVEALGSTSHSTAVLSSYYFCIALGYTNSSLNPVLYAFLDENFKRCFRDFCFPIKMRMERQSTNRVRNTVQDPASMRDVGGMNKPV

rats [5] = settings: cited from earlier work; remark: listed apart in the source
rats [6] = assay: Heroin self-administration and substitution; format: in vivo, rat; settings: 0.5 mg/kg/inf IV

For `CNC1(c2ccccc2Cl)CCCCC1=O` (racemic) [ketamine, (R,S)-ketamine], the “effect on HCN1 channels” value (HCN1 channel [1]) is listed as “inhibit”, the “interaction with the HCN1 channel” value (HCN1 channel [2]) is listed as “neither (2R,6R)-HNK nor ketamine interacted” and the “binding to sigma receptors” value (sigma-1 receptors) is listed as “weak binding”.

For `N[C@@]1(c2ccccc2Cl)CCC[C@@H](O)C1=O` [(2S,6S;2R,6R)-HNK, (2S,6S;2R,6R)-Hydroxynorketamine], the “effect on acute morphine nociception or tolerance” value (rats [3]) is listed as “no effect”.

In the case of `CN[C@@]1(c2ccccc2Cl)CCCCC1=O` [(R)-ketamine], the β-arrestin signaling (MOR and KOR) is listed as “do not activate”, the “binding to mu (MOR) opioid receptors” value (mu-opioid receptors, MOR) is listed as “bind” and the “MOR signaling, inhibition of cAMP accumulation” value (MOR (OPRM1)) is listed as “partial agonists”. The “KOR signaling, inhibition of cAMP accumulation” value (KOR (OPRK1)) was “partial agonists” and the “binding to kappa (KOR) opioid receptors” value [4] was “bind”.

In the case of `CN[C@]1(c2ccccc2Cl)CCCCC1=O` [(S)-ketamine], the β-arrestin signaling (MOR and KOR) is given as “do not activate”, the “binding to mu (MOR) opioid receptors” value (mu-opioid receptors, MOR) is given as “bind” and the self-administration in rats (rats [5]) is given as “is self-administered”. The “pressing on first session after heroin substitution” value (rats [6]) was “increased their pressing”, the “self-administration on successive sessions after heroin substitution” value (rats [6]) was “escalation of self-administration” and the “binding to kappa (KOR) opioid receptors” value [4] was “bind”.
